Data taken from US20130274196A1, “METHOD FOR TREATMENT OF INFLAMMATORY DISEASE AND DISORDER” (HEALOR LTD., priority 2010, published 2013).
Where “and” joins values, the source holds several entries; their conditions need not be identical. Equal entries are not always repeated. Entries after “also recorded” stand apart in the source; their conditions may differ. The star is where a group is joined. Palmitoyl = CCCCCCCCCCCCCCCC(=O)*; Myristoyl = CCCCCCCCCCCCCC(=O)*

Experiments:
keratinocytes = assay: Cytokine secretion in LPS, TNFα or IL-17 activated keratinocytes treated with peptide PKCα inhibitors (ELISA); assay type: cell-based, BALB/C mice; settings: for cytokine secretion in keratinocytes: stimulated by LPS, TNFα, or IL-17, medium collected after 48 hr
Description: To determine their effects, keratinocytes were derived from newborn BALB/C mice skin. The cells were incubated for 5 days in 24 wells plate. Cells were then incubated with PBS −/− as control or stimulated by LPS, TNFα, or IL-17. PKCα inhibitors were added as indicated. Medium containing secreted cytokines was collected after 48 hr and analyzed using ELISA. FIG. 50 is a tabular summary of cytokine secretion.

[1] = tested on: STZ-induced diabetic C57BL/6J mice; assay: Wound healing in STZ-induced diabetic mice; assay type: in vivo
Description: Full thickness skin incisions (20 mm) were performed on the upper back of anesthetized streptozocin (STZ)-injected (175 mg/kg body weight) diabetic, citrate buffer injected (6 mice/group) non-diabetic, and non-injected (6 mice/group), C57BL/6J mice. Periodical blood glucose monitoring was performed by measuring glucose levels from tail vein after STZ injection. […] Following incision, STZ-induced diabetic wounds were treated daily by application of PBS (7/6 mice/group), insulin (0.1 units/ml) (6 mice/group), the PKCa inhibitor of SEQ ID NO:6 (1 μg/ml) (7/5 mice/group) or a formulation (herein designated HO/03/03) containing insulin and the N-myristoylated PKCα inhibitor of SEQ ID NO: 6 (7/6 mice/group) directly to the surgical dressing. Biopsies were collected 9 days post-wounding. Wounds were excised from euthanized animals for evaluation of wound-healing parameters by histology and immunohistochemistry.
Wounds were assessed for epidermal closure by Keratin 14 staining. Wounds were considered closed when complete epidermal staining was observed across the wound gap. Dermal contraction was considered when both dermal edges were visible in a fixed field ×100 magnification utilizing H&E staining. Epidermal differentiation was assessed by Keratin 1 staining.
The organization of hypodermis was assessed by the presence (or absence) of hypodermis at both wound edges. Granulation tissue formation was assessed by the presence of fibroblasts and collagen fibers in the wound bed. The wound was considered positive for granulation tissue formation when a continuous layer of granulation tissue was present in the wound gap. In addition, we have defined 3 specific histological parameters characterizing severe inflammation of diabetic wounds: (i) abscess formation at the wounded area, (ii) excessive leukocytosis (>100 cells in a fixed field (×200)) and (iii) high white blood cells (WBC)/red blood cells (RBC) ratio within the blood vessels shown in a fixed field (×200). When at least 2 of these parameters are present at the wound gap, the wound is considered severely inflamed.

C57BL mice [2] = assay: Incision wounds treated 7 days, histological analysis (Example 9); assay type: in vivo
Description: Wounds were performed on the back of 8-10 week old C57BL mice by incision and were treated daily for 7 days with either vehicle (PBS) control or with 1 μM insulin (Humulin, Eli Lilly, USA) or a mixture of 1 μM insulin combined with 1 μM of the PKCα inhibitor of SEQ ID NO: 6. Seven days after wounding all mice were sacrificed and treated wounds were histologically analyzed for proliferative capacity of the epidermis (proliferating cell nuclear antigen-PCNA), angiogenesis, inflammation, epidermal cells and the remodeling processes at the wound gap.

C57BL mice [3] = assay: Incision wounds treated 7 days, severe inflammation incidence (Example 10); assay type: in vivo; settings: 1 μM daily for 7 days
Description: Wounds were performed on the back of C57BL mice by incision and were treated daily for 7 days with: (i) PBS, control; (ii) 1 μM of the PKCα inhibitor of SEQ ID NO: 6; (iii) 1 μM insulin (Humulin, Eli Lilly, USA); or (iv) a mixture of 1 μM PKCα inhibitor and 1 μM insulin.

EAE mice = assay: Experimental allergic encephalomyelitis (EAE), MOG35-55/CFA immunized mice; assay type: in vivo, C57BL/6J mice; settings: for Score on day 18 / Score on day 29 / Score on day 37: EAE scale 0-6; for EAE score on the initial day: scale 0-6; for Number of dead mice during 49 days: n=7
[4] = 9-days post wounding, percent of wounds in group, insulin 0.1 units, HO/02 1 ug/ml
[5] = 9-days post wounding, percent of wounds in group, insulin 0.1 units, SEQ ID NO: 6 1 ug/ml
[6] = individual wounds, 1 μM daily for 7 days, listed as Insulin only

H-Phe-Ala-Arg-Lys-Gly-Ala-Leu-Arg-Gln-OH (H-FARKGALRQ-OH) [AWOT-1]
cytokine secretion in keratinocytes (keratinocytes): effective in decreasing cytokine secretion

Insulin: insulin (Humulin, Eli Lilly, USA)
Dermal closure (H&E) [1, 4]: 0%
Epidermal closure (K14) [1, 4]: 17%
Epidermal differentiation (Kl) [1, 4]: 0%
Granulation tissue [1, 5]: 40%
Hypodermis [1, 5]: 10%
Severe inflammation [1, 5]: 100%
overall healing effect in diabetic wounds ([1]; 9 days post-wounding): only partial healing effects
adverse side effects at the wound (C57BL mice [2]; 1 μM daily for 7 days): increased inflammation, hyperplasia of epidermal cells, delayed differentiation of the spinous layer of epidermal cells and increased scarring
incidence of abnormal angiogenesis in the wound area (C57BL mice [2]; 1 μM daily for 7 days, PBS control 25%): 60%
Proliferative capacity of the epidermis (layers of basal cells, PCNA), average (C57BL mice [2]; group average, N = 5, 1 μM daily for 7 days): average 6.4
Angiogenesis (C57BL mice [2]; [6]): high abnormal; also recorded: normal
Proliferative capacity of the epidermis (layers of basal cells, PCNA) (C57BL mice [2]; [6]): 8 (2×) and 6 and 5 (2×)
anti-inflammatory effect on wounds (C57BL mice [3]): no anti-inflammatory effect
Incidence of severe inflammation in wound (%) (C57BL mice [3]; PBS control 60): 56%

Myristoyl-Phe-Ala-Arg-Lys-Gly-Ala-Leu-OH (Myristoyl-FARKGAL-OH; SMILES CCCCCCCCCCCCCC(=O)N[C@@H](Cc1ccccc1)C(=O)N[C@@H](C)C(=O)N[C@@H](CCCNC(=N)N)C(=O)N[C@@H](CCCCN)C(=O)NCC(=O)N[C@@H](C)C(=O)N[C@@H](CC(C)C)C(=O)O) [MPDY-1 sh]
cytokine secretion from IL-17A activated keratinocytes (keratinocytes): decrease cytokine secretion
cytokine secretion from LPS and TNFα activated keratinocytes (keratinocytes): decrease cytokine secretion

Myristoyl-Thru-Arg-Lys-Arg-Gln-Arg-Ala-Met-Arg-Arg-Arg-Val-His-Gln-Ile-Asn-Gly-OH (Myristoyl-TRKRQRAMRRRVHQING-OH; SMILES CCCCCCCCCCCCCC(=O)N[C@H](C(=O)N[C@@H](CCCNC(=N)N)C(=O)N[C@@H](CCCCN)C(=O)N[C@@H](CCCNC(=N)N)C(=O)N[C@@H](CCC(N)=O)C(=O)N[C@@H](CCCNC(=N)N)C(=O)N[C@@H](C)C(=O)N[C@@H](CCSC)C(=O)N[C@@H](CCCNC(=N)N)C(=O)N[C@@H](CCCNC(=N)N)C(=O)N[C@@H](CCCNC(=N)N)C(=O)N[C@H](C(=O)N[C@@H](Cc1c[nH]cn1)C(=O)N[C@@H](CCC(N)=O)C(=O)N[C@H](C(=O)N[C@@H](CC(N)=O)C(=O)NCC(=O)O)[C@@H](C)CC)C(C)C)[C@@H](C)O) [MPE-1]
The initial day (of illness signs) (EAE mice; 0.1 mg/kg): 11 days
EAE severity / score compared to control group (EAE mice; 0.1 mg/kg (0.1 μg/ml)): reduced EAE severity
Score on day 18 (EAE mice; 0.1 mg/kg): 2.857
Score on day 29 (EAE mice; 0.1 mg/kg): 1.929
Score on day 37 (EAE mice; 0.1 mg/kg): 1.429
EAE score on the initial day (EAE mice; 0.1 mg/kg): 0.429
The initial day (of illness signs) (EAE mice; 1 mg/kg): 10 days
Number of dead mice during 49 days (EAE mice; 1 mg/kg i.p. three times a week): 4
Score on day 18 (EAE mice; 1 mg/kg): 3.071
Score on day 29 (EAE mice; 1 mg/kg): 4.286
Score on day 37 (EAE mice; 1 mg/kg): 4.286
EAE score on the initial day (EAE mice; 1 mg/kg): 0.429
average group score at the end of the experiment (day 42) (EAE mice; concentration of 0.1 μg/ml, control group score 2.86): 2.00

CRAMP [reference compound]
The initial day (of illness signs) (EAE mice; 0.2 mg/kg): 10 days
Number of dead mice during 49 days (EAE mice; 0.2 mg/kg i.p. three times a week): 2
Score on day 18 (EAE mice; 0.2 mg/kg): 3.214
Score on day 29 (EAE mice; 0.2 mg/kg): 2.000
Score on day 37 (EAE mice; 0.2 mg/kg): 2.571
EAE score on the initial day (EAE mice; 0.2 mg/kg): 0.571
The initial day (of illness signs) (EAE mice; 2 mg/kg): 11 days
Number of dead mice during 49 days (EAE mice; 2 mg/kg i.p. three times a week): 2
Score on day 18 (EAE mice; 2 mg/kg): 2.643
Score on day 29 (EAE mice; 2 mg/kg): 2.643
Score on day 37 (EAE mice; 2 mg/kg): 2.143
EAE score on the initial day (EAE mice; 2 mg/kg): 0.143

H-Thr-Leu-Asn-Pro-Gln-Trp-Glu-Ser-OH (H-TLNPQWES-OH) [AIP-1]
cytokine secretion in keratinocytes (keratinocytes): effective in decreasing cytokine secretion

Palmitoyl-Phe-Ala-Arg-Lys-Gly-Ala-Leu-Arg-Gln-OH-acetate salt (Palmitoyl-FARKGALRQ-OH; also: acetate salt) [PPDY-1]
cytokine secretion in keratinocytes (keratinocytes): effective in decreasing cytokine secretion

Myristoyl-Phe-Ala-Arg-Lys-Gly-Ala-Leu-OH-trifluoracetate salt (Myristoyl-FARKGAL-OH; also: trifluoroacetate salt) [AIP-2]
cytokine secretion in keratinocytes (keratinocytes): effective in decreasing cytokine secretion

H-Phe-Ala-Arg-Lys-Gly-Ala-Leu-Arg-Gln-OH-acetate salt (H-FARKGALRQ-OH; also: acetate salt) [PDY-1]
cytokine secretion from IL-17A activated keratinocytes (keratinocytes): decrease cytokine secretion
cytokine secretion from LPS and TNFα activated keratinocytes (keratinocytes): decrease cytokine secretion
